Measured values: patent US20040058898A1, “Pharmaceutical composition for alleviating the violence of a mammal comprising nortestosterone derivatives” (priority 2002, published 2004)
Entries after “also recorded” stand apart in the source; their conditions may differ.

Columns and labels:
Type in all cases: in vivo
[1] = tested on: male ostriches which violently behaved, cried and did not take feed; assay: Alleviation of the violence and stimulation of the appetite in male ostrich; conditions: male ostrich 100 kg, intramuscular
Description: (§1) After administration, their behaviors and appetites were observed.

[2] = tested on: male lion which violently behaved, cried and did not take feed; assay: Alleviation of the violence and stimulation of the appetite in male lion
[3] = tested on: male dogs which violently behaved, cried and did not take feed; assay: Alleviation of the violence and stimulation of the appetite in male dog; conditions: male dog 40 kg, intramuscular
Description: as §1

[4] = tested on: male cats which violently behaved, cried and did not take feed; assay: Alleviation of the violence and stimulation of the appetite in male cat; conditions: male cat 1 kg, intramuscular
Description: as §1

[5] = tested on: male horses which violently behaved, cried and did not take feed; assay: Alleviation of the violence and stimulation of the appetite in male horse; conditions: male horse 200 kg, intramuscular
Description: as §1

[6] = tested on: male goats which violently behaved, cried and did not take feed; assay: Alleviation of the violence and stimulation of the appetite in male goat; conditions: male goat 40 kg, intramuscular
Description: as §1

[7] = 100 mg (1 mg per kg), Experimental Example 1
[8] = male lion 100 kg, 100 mg (1 mg per kg), Experimental Example 28
[9] = male lion 100 kg, 10, 20, 50, 100, 150, 200, 500 and 1000 mg (0.1 to 10 mg per kg), Experimental Example 29
[10] = 40 mg (1 mg per kg), Experimental Example 20
[11] = 1 mg per Table 5 (1 mg per kg; 100 mg [sic]), Experimental Example 22
[12] = 200 mg (1 mg per kg), Experimental Example 24
[13] = 40 mg (1 mg per kg), Experimental Example 26
[14] = 40 mg (1 mg per kg), Experimental Example 26, listed as 17-decanoate-4-estren-3-one

Structure (SMILES): CCCCCCCCCC(=O)O[C@H]1CC[C@H]2[C@@H]3CCC4=CC(=O)CC[C@@H]4[C@H]3CC[C@]12C [17β-decanoate-4-estren-3-one]
- Violence and appetite, After administration: appetite ([1]; 10 mg (0.1 mg per kg), Experimental Example 2): stimulated appetite
- Violence and appetite, After administration: appetite ([1]; 20 mg (0.2 mg per kg), Experimental Example 2): stimulated appetite
- Violence and appetite, After administration: appetite ([1]; 50 mg (0.5 mg per kg), Experimental Example 2): stimulated appetite
- Violence and appetite, After administration: appetite [1, 7]: appetite stimulated; also recorded: stimulated appetite
- Violence and appetite, After administration: violence [1, 7]: violence of estrus alleviated
- feed intake after administration [1, 7]: increased feed intake
- Violence and appetite, After administration: appetite ([1]; 100 mg (1.0 mg per kg), Experimental Example 2): stimulated appetite
- Violence and appetite, After administration: appetite ([1]; 150 mg (1.5 mg per kg), Experimental Example 2): stimulated appetite
- Violence and appetite, After administration: appetite ([1]; 200 mg (2.0 mg per kg), Experimental Example 2): stimulated appetite
- Violence and appetite, After administration: appetite ([1]; 500 mg (5.0 mg per kg), Experimental Example 2): stimulated appetite
- Violence and appetite, After administration: appetite ([1]; 1000 mg (10 mg per kg), Experimental Example 2): stimulated appetite
- appetite after intramuscular injection [2, 8]: appetite stimulated
- feed intake after administration [2, 8]: increased feed intake
- violence of estrus after intramuscular injection [2, 8]: violence of estrus alleviated
- appetite after intramuscular injection [2, 9]: appetite stimulated
- feed intake after administration [2, 9]: increased feed intake
- violence of estrus after intramuscular injection [2, 9]: violence of estrus alleviated
- Violence and appetite, After administration: appetite ([3]; 4 mg (0.1 mg per kg), Experimental Example 21): stimulated appetite
- Violence and appetite, After administration: appetite ([3]; 8 mg (0.2 mg per kg), Experimental Example 21): stimulated appetite
- Violence and appetite, After administration: appetite ([3]; 20 mg (0.5 mg per kg), Experimental Example 21): stimulated appetite
- Violence and appetite, After administration: appetite [3, 10]: appetite stimulated; also recorded: stimulated appetite
- Violence and appetite, After administration: violence [3, 10]: violence of estrus alleviated
- feed intake after administration [3, 10]: increased feed intake
- Violence and appetite, After administration: appetite ([3]; 40 mg (1.0 mg per kg), Experimental Example 21): stimulated appetite
- Violence and appetite, After administration: appetite ([3]; 60 mg (1.5 mg per kg), Experimental Example 21): stimulated appetite
- Violence and appetite, After administration: appetite ([3]; 80 mg (2.0 mg per kg), Experimental Example 21): stimulated appetite
- Violence and appetite, After administration: appetite ([3]; 200 mg (5.0 mg per kg), Experimental Example 21): stimulated appetite
- Violence and appetite, After administration: appetite ([3]; 400 mg (10 mg per kg), Experimental Example 21): stimulated appetite
- Violence and appetite, After administration: appetite ([4]; 0.1 mg (0.1 mg per kg), Experimental Example 23): stimulated appetite
- Violence and appetite, After administration: appetite ([4]; 0.2 mg (0.2 mg per kg), Experimental Example 23): stimulated appetite
- Violence and appetite, After administration: appetite ([4]; 0.5 mg (0.5 mg per kg), Experimental Example 23): stimulated appetite
- Violence and appetite, After administration: appetite ([4]; 1 mg (1.0 mg per kg), Experimental Example 23): stimulated appetite
- Violence and appetite, After administration: appetite [4, 11]: appetite stimulated; also recorded: stimulated appetite
- Violence and appetite, After administration: violence [4, 11]: violence of estrus alleviated
- feed intake after administration [4, 11]: increased feed intake
- Violence and appetite, After administration: appetite ([4]; 1.5 mg (1.5 mg per kg), Experimental Example 23): stimulated appetite
- Violence and appetite, After administration: appetite ([4]; 2 mg (2.0 mg per kg), Experimental Example 23): stimulated appetite
- Violence and appetite, After administration: appetite ([4]; 5 mg (5.0 mg per kg), Experimental Example 23): stimulated appetite
- Violence and appetite, After administration: appetite ([4]; 10 mg (10 mg per kg), Experimental Example 23): stimulated appetite
- Violence and appetite, After administration: appetite ([5]; 20 mg (0.1 mg per kg), Experimental Example 25): stimulated appetite
- Violence and appetite, After administration: appetite ([5]; 40 mg (0.2 mg per kg), Experimental Example 25): stimulated appetite
- Violence and appetite, After administration: appetite ([5]; 100 mg (0.5 mg per kg), Experimental Example 25): stimulated appetite
- Violence and appetite, After administration: appetite [5, 12]: appetite stimulated; also recorded: stimulated appetite
- Violence and appetite, After administration: violence [5, 12]: violence of estrus alleviated
- feed intake after administration [5, 12]: increased feed intake
- Violence and appetite, After administration: appetite ([5]; 200 mg (1.0 mg per kg), Experimental Example 25): stimulated appetite
- Violence and appetite, After administration: appetite ([5]; 300 mg (1.5 mg per kg), Experimental Example 25): stimulated appetite
- Violence and appetite, After administration: appetite ([5]; 400 mg (2.0 mg per kg), Experimental Example 25): stimulated appetite
- Violence and appetite, After administration: appetite ([5]; 1000 mg (5.0 mg per kg), Experimental Example 25): stimulated appetite
- Violence and appetite, After administration: appetite ([5]; 2000 mg (10 mg per kg), Experimental Example 25): stimulated appetite
- Violence and appetite, After administration: appetite ([6]; 4 mg (0.1 mg per kg), Experimental Example 27): stimulated appetite
- Violence and appetite, After administration: appetite ([6]; 8 mg (0.2 mg per kg), Experimental Example 27): stimulated appetite
- Violence and appetite, After administration: appetite ([6]; 20 mg (0.5 mg per kg), Experimental Example 27): stimulated appetite
- Violence and appetite, After administration: appetite [6, 13]: stimulated appetite
- feed intake after administration [6, 13]: increased feed intake
- Violence and appetite, After administration: appetite [6, 14]: appetite stimulated
- Violence and appetite, After administration: violence [6, 14]: violence of estrus alleviated
- Violence and appetite, After administration: appetite ([6]; 40 mg (1.0 mg per kg), Experimental Example 27): stimulated appetite
- Violence and appetite, After administration: appetite ([6]; 60 mg (1.5 mg per kg), Experimental Example 27): stimulated appetite
- Violence and appetite, After administration: appetite ([6]; 80 mg (2.0 mg per kg), Experimental Example 27): stimulated appetite
- Violence and appetite, After administration: appetite ([6]; 200 mg (5.0 mg per kg), Experimental Example 27): stimulated appetite
- Violence and appetite, After administration: appetite ([6]; 400 mg (10 mg per kg), Experimental Example 27): stimulated appetite
